Measurements reported in US9062078B2, “Substituted 7-azabicyles and their use as orexin receptor modulators” (priority 2013, dated 2015).
Like-named read-outs stand apart in the source and are kept apart here.

How the values were obtained:
human orexin 2 receptor = human orexin 2 receptor (Homo sapiens (Human), UniProt O43614); experiment: Human orexin 2 receptor radioligand binding (competitive, [3H]-EMPA, HEK293 cell preparations)
human orexin 1 receptor = human orexin 1 receptor (Homo sapiens (Human), UniProt O43613); experiment: Human orexin 1 receptor radioligand binding (competitive, [3H]-SB674042, CHO cell preparations)
Chain of human orexin 1 receptor (O43613 whole entry): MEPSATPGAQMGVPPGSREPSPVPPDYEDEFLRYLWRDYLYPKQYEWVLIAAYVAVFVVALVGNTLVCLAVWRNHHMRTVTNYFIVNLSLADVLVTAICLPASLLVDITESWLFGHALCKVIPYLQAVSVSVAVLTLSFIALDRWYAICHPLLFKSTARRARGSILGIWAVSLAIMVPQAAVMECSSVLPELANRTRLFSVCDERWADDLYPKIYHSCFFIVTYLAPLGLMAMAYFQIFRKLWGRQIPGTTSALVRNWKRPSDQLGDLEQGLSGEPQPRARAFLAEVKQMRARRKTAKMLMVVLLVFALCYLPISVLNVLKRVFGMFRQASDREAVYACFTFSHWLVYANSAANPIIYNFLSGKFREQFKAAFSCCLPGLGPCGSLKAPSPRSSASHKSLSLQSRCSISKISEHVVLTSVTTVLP

rat orexin 1 receptor = rat orexin 1 receptor (Rattus norvegicus, UniProt P56718); experiment: Rat orexin 1 receptor radioligand binding (competitive, [3H]-SB674042, HEK293 cell preparations)
[1] = human orexin 2 receptor, [3H]-EMPA competition binding, read-out: hOX2 Ki (nm)
[2] = human orexin 1 receptor, [3H]-SB674042 competition binding, read-out: hOX1 Ki (nm)
[3] = rat orexin 1 receptor, [3H]-SB674042 competition binding, read-out: rOX1 Ki (nm)

Chain of human orexin 2 receptor (O43614 whole entry): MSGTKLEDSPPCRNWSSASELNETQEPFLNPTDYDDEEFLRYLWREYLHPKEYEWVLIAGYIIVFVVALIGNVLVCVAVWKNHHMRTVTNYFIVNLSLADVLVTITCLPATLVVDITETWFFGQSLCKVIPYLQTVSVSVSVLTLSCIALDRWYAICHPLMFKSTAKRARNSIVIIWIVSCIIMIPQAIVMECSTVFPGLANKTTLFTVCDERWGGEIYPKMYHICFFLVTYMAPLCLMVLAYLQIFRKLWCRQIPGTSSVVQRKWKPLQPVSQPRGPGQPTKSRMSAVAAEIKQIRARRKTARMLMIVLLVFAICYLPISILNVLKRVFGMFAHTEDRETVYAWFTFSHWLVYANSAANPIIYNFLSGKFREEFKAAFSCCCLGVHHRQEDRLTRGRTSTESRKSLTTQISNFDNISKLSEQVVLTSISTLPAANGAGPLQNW

Compound | Ki (human orexin 2 receptor; [1]) | Ki (rat orexin 1 receptor; [3]) | other results
O=C(c1ccccc1-n1nccn1)N1C2CCC1C(COc1cnc3ccccc3n1)C2 (racemic) [Example 34, (±)-(2-(2H-1,2,3-triazol-2-yl)phenyl)(2-((quinoxalin-2-yloxy)methyl)-7-azabicyclo[2.2.1]heptan-7-yl)methanone] | 0.467 µM | – | Ki (human orexin 1 receptor; [2]): 0.06 µM
Cc1ccc(-n2nccn2)c(C(=O)N2C3CCC2C(COc2nc(C)cc(C)n2)C3)c1 (racemic) [Example 39, (±)-(2-(((4,6-dimethylpyrimidin-2-yl)oxy)methyl)-7-azabicyclo[2.2.1]heptan-7-yl)(5-methyl-2-(2H-1,2,3-triazol-2-yl)phenyl)methanone] | 0.027 µM | – | Ki (human orexin 1 receptor; hOX1 Ki (nm)): 0.029 µM
O=C(c1cc(F)ccc1-n1nccn1)N1C2CCC1C(CNc1nccc(C(F)(F)F)n1)C2 (racemic) [Example 171, (±)-(5-fluoro-2-(2H-1,2,3-triazol-2-yl)phenyl)(2-(((4-(trifluoromethyl)pyrimidin-2-yl)amino)methyl)-7-azabicyclo[2.2.1]heptan-7-yl)methanone] | – | – | Ki (human orexin 1 receptor; [2]): 1.93 µM
O=C(c1cc(F)ccc1-n1nccn1)N1C2CCC1C(CNc1cccc(C(F)(F)F)n1)C2 (racemic) [Example 172, (±)-(5-fluoro-2-(2H-1,2,3-triazol-2-yl)phenyl)(2-(((6-(trifluoromethyl)pyridin-2-yl)amino)methyl)-7-azabicyclo[2.2.1]heptan-7-yl)methanone] | – | – | Ki (human orexin 1 receptor; [2]): 0.686 µM
O=C(c1ncc(Cl)cc1-n1nccn1)N1C2CCC1C(COc1ccc(F)cn1)C2 (racemic) [Example 112, (±)-(5-chloro-3-(2H-1,2,3-triazol-2-yl)pyridin-2-yl)(2-(((5-fluoropyridin-2-yl)oxy)methyl)-7-azabicyclo[2.2.1]heptan-7-yl)methanone] | 1 µM | 0.48 µM | –
CCOc1ccc(C)nc1C(=O)N1C2CCC1C(Nc1ncc(C(F)(F)F)cn1)C2 (single isomer, unassigned) [Example 227, (±)-(3-ethoxy-6-methylpyridin-2-yl)(2-(5-(trifluoromethyl)pyrimidin-2-yl)amino)-7-azabicyclo[2.2.1]heptan-7-yl)methanone] | > 10 µM | > 10 µM | –
Cc1ccc(-n2nccn2)c(C(=O)N2C3CCC2C(COc2ccnn2C)C3)n1 (racemic) [Example 56, (±)-(2-(((1-methyl-1H-pyrazol-5-yl)oxy)methyl)-7-azabicyclo[2.2.1]heptan-7-yl)(6-methyl-3-(2H-1,2,3-triazol-2-yl)pyridin-2-yl)methanone] | – | > 10 µM | Ki (human orexin 2 receptor; hOX2 Ki (nm)): > 10 µM
Cc1ccc(N(C)C)c(C(=O)N2C3CCC2C(COc2ccccn2)C3)n1 (racemic) [Example 73, (±)-(3-(dimethylamino)-6-methylpyridin-2-yl)(2-((pyridin-2-yloxy)methyl)-7-azabicyclo[2.2.1]heptan-7-yl)methanone] | 7.9 µM | 0.278 µM | –
CCOc1ccc(C)nc1C(=O)N1C2CCC1C(Nc1nc(C)cc(C)n1)C2 (racemic) [Example 203, (±)-(2-((4,6-dimethylpyrimidin-2-yl)amino)-7-azabicyclo[2.2.1]heptan-7-yl)(3-ethoxy-6-methylpyridin-2-yl)methanone] | 0.49 µM | > 10 µM | –
Cc1ccc(-c2ncccn2)c(C(=O)N2[C@H]3CC[C@@H]2[C@@H](COc2ccccn2)C3)n1 (single isomer, unassigned) [Example 3B, (6-methyl-3-(pyrimidin-2-yl)pyridin-2-yl)((1R*,2S*,4S*)-2-((pyridin-2-yloxy)methyl)-7-azabicyclo[2.2.1]heptan-7-yl)methanone] | – | – | Ki (human orexin 2 receptor; hOX2 Ki (nm)): > 10 µM; Ki (rat orexin 1 receptor; rOX1 Ki (nm)): > 10 µM
Cc1ccc(-n2nccn2)c(C(=O)N2C3CCC2C(COc2ccc(C(F)(F)F)cn2)C3)n1 (racemic) [Example 47, (±)-(6-methyl-3-(2H-1,2,3-triazol-2-yl)pyridin-2-yl)(2-(((5-(trifluoromethyl)pyridin-2-yl)oxy)methyl)-7-azabicyclo[2.2.1]heptan-7-yl)methanone] | 0.418 µM | – | Ki (rat orexin 1 receptor; rOX1 Ki (nm)): 0.46 µM
CCOc1ccc(C)nc1C(=O)N1C2CCC1C(Nc1ncc(C(F)(F)F)cn1)C2 (single isomer, unassigned) [Example 224, (±)-(3-ethoxy-6-methylpyridin-2-yl)(2-(5-(trifluoromethyl)pyrimidin-2-yl)amino)-7-azabicyclo[2.2.1]heptan-7-yl)methanone] | 7.4 µM | 2.5 µM | –
O=C(c1ncccc1-n1nccn1)N1C2CCC1C(COc1ccccn1)C2 (racemic) [Example 91, (±)-(3-(2H-1,2,3-triazol-2-yl)pyridin-2-yl)(2-((pyridin-2-yloxy)methyl)-7-azabicyclo[2.2.1]heptan-7-yl)methanone] | 3.3 µM | – | Ki (rat orexin 1 receptor; rOX1 Ki (nm)): 0.624 µM
Cc1ccc(-n2nccn2)c(C(=O)N2C3CCC2C(COc2ncccn2)C3)n1 (racemic) [Example 59, (±)-(6-methyl-3-(2H-1,2,3-triazol-2-yl)pyridin-2-yl)(2-((pyrimidin-2-yloxy)methyl)-7-azabicyclo[2.2.1]heptan-7-yl)methanone] | – | 2.6 µM | Ki (human orexin 2 receptor; hOX2 Ki (nm)): 4.9 µM
O=C(c1ccccc1-n1nccn1)N1C2CCC1C(Nc1ccccn1)C2 (racemic) [Example 215, (±)-(2-(2H-1,2,3-triazol-2-yl)phenyl)(2-(pyridin-2-ylamino)-7-azabicyclo[2.2.1]heptan-7-yl)methanone] | 9 µM | 1.7 µM | –
Cc1cc(C)nc(NC2CC3CCC2N3C(=O)c2nc(C)ccc2-c2ncccn2)n1 (racemic) [Example 200, (±)-(2-(((4,6-dimethylpyrimidin-2-yl)amino)-7-azabicyclo[2.2.1]heptan-7-yl)(6-methyl-3-(pyrimidin-2-yl)pyridin-2-yl)methanone] | 0.552 µM | 1.1 µM | –
O=C(c1ccccc1-n1nccn1)N1C2CCC1C(Nc1ncc(C(F)(F)F)cn1)C2 (racemic) [Example 221, (±)-(2-(2H-1,2,3-triazol-2-yl)phenyl)(2-(5-(trifluoromethyl)pyrimidin-2-yl)amino)-7-azabicyclo[2.2.1]heptan-7-yl)methanone] | – | – | Ki (human orexin 1 receptor; [2]): 0.2 µM
CCOc1ccnc(Cl)c1C(=O)N1C2CCC1C(COc1ccccn1)C2 (racemic) [Example 162, (±)-(2-chloro-4-ethoxypyridin-3-yl)(2-((pyridin-2-yloxy)methyl)-7-azabicyclo[2.2.1]heptan-7-yl)methanone] | > 10 µM | 8.5 µM | –
O=C(c1cccc(F)c1-c1ncccn1)N1[C@@H]2CC[C@H]1[C@H](Nc1nccn3c(C(F)(F)F)nnc13)C2 [Example 274] | 2.56 µM | > 10 µM | –
Cc1ccc(-n2nccn2)c(C(=O)N2C3CCC2C(COc2cnccn2)C3)n1 (racemic) [Example 60, (±)-(6-methyl-3-(2H-1,2,3-triazol-2-yl)pyridin-2-yl)(2-((pyrazin-2-yloxy)methyl)-7-azabicyclo[2.2.1]heptan-7-yl)methanone] | – | 7.8 µM | Ki (human orexin 2 receptor; hOX2 Ki (nm)): > 10 µM
Cc1ccc(-c2ncccn2)c(C(=O)N2C3CCC2C(Nc2ncc(C(F)(F)F)cn2)C3)n1 (racemic) [Example 225, (±)-(6-methyl-3-(pyrimidin-2-yl)pyridin-2-yl)(2-(5-(trifluoromethyl)pyrimidin-2-yl)amino)-7-azabicyclo[2.2.1]heptan-7-yl)methanone] | 3.3 µM | 0.53 µM | –
Cn1c(C(=O)N2[C@@H]3CC[C@H]2[C@H](Nc2cnc(C(F)(F)F)cn2)C3)nc2ccccc21 [Example 251, (1-methyl-1H-benzo[d]imidazol-2-yl)((1S,2R,4R)-2-((5-(trifluoromethyl)pyrazin-2-yl)amino)-7-azabicyclo[2.2.1]heptan-7-yl)methanone] | 5.3 µM | 0.52 µM | –
COc1cnc(C(=O)N2C3CCC2C(COc2ccc(F)cn2)C3)c(-n2nccn2)c1 (racemic) [Example 113, (±)-(2-(((5-fluoropyridin-2-yl)oxy)methyl)-7-azabicyclo[2.2.1]heptan-7-yl)(5-methoxy-3-(2H-1,2,3-triazol-2-yl)pyridin-2-yl)methanone] | 4.8 µM | 3.4 µM | –
COc1c(F)cccc1C(=O)N1C2CCC1C(Nc1ncc(C(F)(F)F)cn1)C2 (racemic) [Example 226, (±)-(3-fluoro-2-methoxyphenyl)(2-(5-(trifluoromethyl)pyrimidin-2-yl)amino)-7-azabicyclo[2.2.1]heptan-7-yl)methanone] | > 10 µM | – | Ki (rat orexin 1 receptor; rOX1 Ki (nm)): > 10 µM
COc1c(F)cccc1C(=O)N1C2CCC1C(Nc1cnc3ccccc3n1)C2 (single isomer, unassigned) [Example 231, (±)-(3-fluoro-2-methoxyphenyl)(2-(quinoxalin-2-ylamino)-7-azabicyclo[2.2.1]heptan-7-yl)methanone] | > 10 µM | > 10 µM | –
O=C(c1c(O)ccc2cccnc12)N1C2CCC1C(COc1ccccn1)C2 (racemic) [Example 159, (±)-(7-hydroxyquinolin-8-yl)(2-((pyridin-2-yloxy)methyl)-7-azabicyclo[2.2.1]heptan-7-yl)methanone] | 0.786 µM | 0.262 µM | –
Cc1cnc(C(=O)N2C3CCC2C(Nc2cnc(C(F)(F)F)cn2)C3)c(-n2ccnn2)c1 (racemic) [Example 185, (±)-(5-methyl-3-(1H-1,2,3-triazol-1-yl)pyridin-2-yl)(2-(5-(trifluoromethyl)pyrazin-2-yl)amino)-7-azabicyclo[2.2.1]heptan-7-yl)methanone] | 2.7 µM | 1.5 µM | –
Cc1ccc(C(=O)N2C3CCC2C(Nc2ccc(C(F)(F)F)cn2)C3)c(-n2ccnn2)n1 (racemic) [Example 190, (±)-(6-methyl-2-(1H-1,2,3-triazol-1-yl)pyridin-3-yl)(2-(5-(trifluoromethyl)pyridin-2-yl)amino)-7-azabicyclo[2.2.1]heptan-7-yl)methanone] | 1.2 µM | – | Ki (rat orexin 1 receptor; rOX1 Ki (nm)): 0.589 µM
